Measured values as given in US9125862B2, “Methods for the treatment of Prader-Willi-like syndrome or non-organic failure to thrive (NOFITT) feeding disorder using an agonist of the oxytocin receptor” (Institut National de la Sante et de la Rechereche Medicale …, priority 2010, dated 2015).

Tested on: adult patients with PWS
Assay: Behavioural grid scores after a single intranasal administration, double-blind placebo-controlled pilot study
Format: in vivo, human
Set-up: key to Change in behavioural scores: Depressive tendencies, Mean / Change in behavioural scores: Self-depreciation, Mean / Change in behavioural scores: Interest in love affair, Mean / Change in behavioural scores: Trust in others, Mean / Change in behavioural scores: Isolation tendencies, Mean / Change in behavioural scores: Sadness tendencies, Mean: grid score: negative = deterioration, positive = improvement
Text: The inventors designed a double-blind randomised, placebo-controlled pilot study (ClinicalTrials.gov Identifier: NCT01038570) to be conducted in a dedicated PWS centre, where patients are regularly admitted for one month and live in a controlled environment. Patients know they have no free access to food but no doubt about the time and the content of meals. For each stay, 16 patients with PWS are admitted and take part in daily planned occupational and physical group activities. They also receive medical care as needed and psychological support. The 24 patients included in this study (16 females, 8 males, median age 28.5 years [18.7 to 43.6], median BMI 43 kg/m2 [19.4 to 67.4]) were stratified on gender and IQ (median IQ=51 [45 to 75]). […] Patients as well as parents or caregivers gave their written consent prior to entering the study. Exclusion criteria were an abnormal ECG and other severe cardiovascular problems. Patients were well known to the team. Each pair of patients of the same gender and same IQ range was evaluated the same day. The two patients of the pair received either OT or placebo in a double-blind randomisation. Patients were included in the study over the course of three series of stays.
Each patient received a single intranasal administration of either placebo (saline solution) or OT (Syntocinon®/-Spray, Novartis, Basel, Switzerland) with three puffs per nostril (24 UI). The dose of 24 UI is the most frequently reported in the literature. […] This nurse knew neither the patients nor the study.
The behaviour of the patients was carefully monitored, scored daily by the team psychologist, and documented on the case report form for the two days before drug administration, on the half-day following administration (early effects) and over the two days following drug administration (late effects). Both the staff and the rater were unaware of treatment status. There are currently no validated grids that evaluate the specific behavioural features of patients with PWS that they particularly wanted to study, i.e. tendencies towards isolation, sadness, and depression, self-depreciation, self-mutilation, conflicts with others, disruptive behaviour, interest in friendship, interest in love affairs, and trust of others. For this reason, they used an in-house grid developed by the caregivers and based on the routine observation of these patients in this dedicated centre for PWS with recognized expertise (17, 18). The criteria that the staff used to fill in the grid are explained in Table 1. The patients were well known to the team but the mean behavior status was re-evaluated during the first week of admission using the same grid. The behavioural features of the patients were scored as unchanged, moderately changed, or severely changed. For each criterion, a negative score reflected deterioration in the mean behavior status of the patient while a positive score reflected an improvement. Eating behaviour was also scored using three categories: usual, better than usual or worse, based on the analysis of each meal. The following were evaluated: amount of food intake per meal, amount of food requested per meal, duration of meal, and behaviour before/during/after the meal. To evaluate the early effect of OT, we analysed only the first meal after drug administration.

[1] = 19 patients with deletions, P=0.05, data not shown
[2] = Early effect (half-day following administration), intranasal 24 UI
[3] = Late effect (mean of two days following administration), intranasal 24 UI
[4] = Pre-administration (mean of two days before), OT group baseline
[5] = pre-post difference (late effect score minus pre-administration score), OT group

`CC[C@H](C)[C@@H]1NC(=O)[C@H](Cc2ccc(O)cc2)NC(=O)[C@@H](N)CSSC[C@@H](C(=O)N2CCC[C@H]2C(=O)N[C@@H](CC(C)C)C(=O)NCC(N)=O)NC(=O)[C@H](CC(N)=O)NC(=O)[C@H](CCC(N)=O)NC1=O` [oxytocin] was tested, and the “effect on disruptive behaviour” value (19 patients with deletions (9 OT, 10 placebo), P=0.04, data not shown) was “significant effect”, the interest in friendship [1] was “more interest in friendship” and the trust in others [1] was “trend towards more trust in others”. The sadness tendencies (19 patients with deletions, P=0.07, data not shown) was “fewer sadness tendencies”, the Depressive tendencies score [2] was 0 ± 0 and the Disruptive behaviour score [2] was −0.167 ± 0.389. For the same compound, the “Interest in friendship score” value [2] was 0.917 ± 0.515, the “Interest in love affairs score” value [2] was 0.917 ± 0.515 and the Isolation tendencies score [2] was −0.083 ± 0.289. The Sadness tendencies score [2] was −0.083 ± 0.289, the Self-depreciation score [2] was −0.083 ± 0.289 and the Self-mutilation score [2] was −0.083 ± 0.289. For the same compound, the “Trust in others score” value [2] was 0.833 ± 0.389, the “Conflicts with others score” value [3] was −0.111 ± 0.205 and the Depressive tendencies score [3] was 0 ± 0. For the same compound, the “Interest in friendship score” value [3] was 1.028 ± 0.234, the “Interest in love affairs score” value [3] was 0.903 ± 0.411 and the Isolation tendencies score [3] was 0 ± 0. For the same compound, the Self-depreciation score [3] was 0 ± 0, the Self-mutilation score [3] was −0.083 ± 0.195 and the “Conflicts with others score” value [4] was −0.319 ± 0.359. The Depressive tendencies score [4] was −0.056 ± 0.192, the Disruptive behaviour score [4] was −0.431 ± 0.344 and the “Interest in friendship score” value [4] was 0.875 ± 0.433. For the same compound, the “Interest in love affairs score” value [4] was 0.972 ± 0.531, the Isolation tendencies score [4] was −0.083 ± 0.289 and the Sadness tendencies score [4] was −0.194 ± 0.407. The Self-depreciation score [4] was −0.056 ± 0.192, the Self-mutilation score [4] was −0.278 ± 0.468 and the “Trust in others score” value [4] was 0.861 ± 0.332. The disruptive behaviour (excluding the seven patients on psychotropic medications, two days following administration, P=0.04, data not shown) was “less disruptive behaviour”, the “Change in behavioural scores: Conflicts with others, Mean” value [5] was 0.208 and the “Change in behavioural scores: Depressive tendencies, Mean” value [5] was 0.056. The “Change in behavioural scores: Interest in friendship, Mean” value [5] was 0.153, the “Change in behavioural scores: Interest in love affair, Mean” value [5] was −0.069 and the “Change in behavioural scores: Isolation tendencies, Mean” value [5] was 0.083. The “Change in behavioural scores: Sadness tendencies, Mean” value [5] was 0.111, the “Change in behavioural scores: Self-depreciation, Mean” value [5] was 0.056 and the “Change in behavioural scores: Trust in others, Mean” value [5] was 0.167.
